Experimental data published in ChEMBL document CHEMBL4765272, “Design, synthesis and biological evaluation of tyrosine derivatives as Mcl-1 inhibitors” (Eur J Med Chem, 2020).
Activity calls are given as the source filed them. The rule behind the calls is not given here.

Tests used:
[1] = Inhibition of 5-FAM-BH3 peptide binding to N-terminal His8-tagged human MCL-1 (209 to 327 residues)/mouse MCL-1 (152 to 189 residues) expressed in Escherichia coli BL21 (DE3) by fluorescence polarization assay
[2] = biological target: Bcl-2-like protein 1 (Homo sapiens) (UniProt Q07817); test: Inhibition of 5-FAM-BH3 peptide binding to human N-terminal GST-tagged BCL-XL (1 to 212 residues) expressed in Escherichia coli BL21 (DE3) at 100 uM by fluorescence polarization assay relative to control
Bcl-2-like protein 1 (Homo sapiens), sequence (Q07817 whole entry, the tested form may be a part, canonical isoform): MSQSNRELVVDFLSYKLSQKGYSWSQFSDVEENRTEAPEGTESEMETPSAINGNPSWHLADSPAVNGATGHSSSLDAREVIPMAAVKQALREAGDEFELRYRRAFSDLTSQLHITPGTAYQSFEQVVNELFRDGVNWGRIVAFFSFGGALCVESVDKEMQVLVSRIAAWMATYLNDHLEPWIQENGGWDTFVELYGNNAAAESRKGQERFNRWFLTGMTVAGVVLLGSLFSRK

[3] = species on record: Homo sapiens; test: Inhibition of 5-FAM-BH3 peptide binding to human N-terminal GST-tagged BCL-2 (1 to 34 residues)/BCL-XL (29 to 44 residues)/BCL-2 isoform 2 (92 to 207 residues) expressed in Escherichia coli BL21 (DE3) at 100 uM by fluorescence polarization assay relative to control
[4] = Antiproliferative activity against human KM3 cells incubated for 72 hrs by MTT assay; format: functional, cell-based; settings: KM3, 72 h
[5] = test system: HepG2; test: Antiproliferative activity against human HepG2 cells incubated for 72 hrs by MTT assay; format: functional, cell-based; settings: HepG2, 72 h
[6] = test system: RPMI-8226; test: Antiproliferative activity against human RPMI-8226 cells incubated for 72 hrs by MTT assay; format: functional, cell-based; settings: RPMI-8226, 72 h
[7] = test system: Jurkat; test: Antiproliferative activity against human Jurkat cells incubated for 72 hrs by MTT assay; format: functional, cell-based
[8] = test system: MOLT-4; test: Antiproliferative activity against human MOLT-4 cells incubated for 72 hrs by MTT assay; format: functional, cell-based; settings: MOLT-4, 72 h
[9] = test system: PC-3; test: Antiproliferative activity against human PC-3 cells incubated for 72 hrs by MTT assay; format: functional, cell-based; settings: PC-3, 72 h
[10] = test system: NCI-H1299; test: Antiproliferative activity against human NCI-H1299 cells incubated for 72 hrs by MTT assay; format: functional, cell-based; settings: NCI-H1299, 72 h
[11] = test system: KM3; test: Induction of apoptosis in human KM3 cells measured after 48 hrs by Annexin V-FITC/propidium iodide staining based flow cytometry; format: functional, cell-based
[12] = test system: HepG2; test: Induction of apoptosis in human HepG2 cells measured after 48 hrs by Annexin V-FITC/propidium iodide staining based flow cytometry; format: functional, cell-based
[13] = Induction of apoptosis in human KM3 cells assessed as viable cells at 10 uM measured after 48 hrs by Annexin V-FITC/propidium iodide staining based flow cytometry (reference value: 96.24%); format: functional; settings: read-out: Activity
[14] = Induction of apoptosis in human KM3 cells assessed as early apoptotic cells at 10 uM measured after 48 hrs by Annexin V-FITC/propidium iodide staining based flow cytometry (reference value: 2.18%); format: functional
[15] = Induction of apoptosis in human KM3 cells assessed as late apoptotic cells at 10 uM measured after 48 hrs by Annexin V-FITC/propidium iodide staining based flow cytometry (reference value: 1.15%); format: functional
[16] = Induction of apoptosis in human KM3 cells assessed as necrotic cells at 10 uM measured after 48 hrs by Annexin V-FITC/propidium iodide staining based flow cytometry (reference value: 0.42%); format: functional
[17] = Induction of apoptosis in human KM3 cells assessed as viable cells at 20 uM measured after 48 hrs by Annexin V-FITC/propidium iodide staining based flow cytometry (reference value: 96.24%); format: functional; settings: read-out: Activity
[18] = Induction of apoptosis in human KM3 cells assessed as early apoptotic cells at 20 uM measured after 48 hrs by Annexin V-FITC/propidium iodide staining based flow cytometry (reference value: 2.18%); format: functional
[19] = Induction of apoptosis in human KM3 cells assessed as late apoptotic cells at 20 uM measured after 48 hrs by Annexin V-FITC/propidium iodide staining based flow cytometry (reference value: 1.15%); format: functional
[20] = Induction of apoptosis in human KM3 cells assessed as necrotic cells at 20 uM measured after 48 hrs by Annexin V-FITC/propidium iodide staining based flow cytometry (reference value: 0.42%); format: functional
[21] = test system: HepG2; test: Induction of apoptosis in human HepG2 cells assessed as viable cells at 10 uM measured after 48 hrs by Annexin V-FITC/propidium iodide staining based flow cytometry (reference value: 96.84%); format: functional; settings: read-out: Activity
[22] = test system: HepG2; test: Induction of apoptosis in human HepG2 cells assessed as early apoptotic cells at 10 uM measured after 48 hrs by Annexin V-FITC/propidium iodide staining based flow cytometry (reference value: 0.71%); format: functional
[23] = test system: HepG2; test: Induction of apoptosis in human HepG2 cells assessed as late apoptotic cells at 10 uM measured after 48 hrs by Annexin V-FITC/propidium iodide staining based flow cytometry (reference value: 1.93%); format: functional
[24] = test system: HepG2; test: Induction of apoptosis in human HepG2 cells assessed as necrotic cells at 10 uM measured after 48 hrs by Annexin V-FITC/propidium iodide staining based flow cytometry (reference value: 0.52%); format: functional
[25] = test system: HepG2; test: Induction of apoptosis in human HepG2 cells assessed as viable cells at 20 uM measured after 48 hrs by Annexin V-FITC/propidium iodide staining based flow cytometry (reference value: 96.84%); format: functional; settings: read-out: Activity
[26] = test system: HepG2; test: Induction of apoptosis in human HepG2 cells assessed as early apoptotic cells at 20 uM measured after 48 hrs by Annexin V-FITC/propidium iodide staining based flow cytometry (reference value: 0.71%); format: functional
[27] = test system: HepG2; test: Induction of apoptosis in human HepG2 cells assessed as late apoptotic cells at 20 uM measured after 48 hrs by Annexin V-FITC/propidium iodide staining based flow cytometry (reference value: 1.93%); format: functional
[28] = test system: HepG2; test: Induction of apoptosis in human HepG2 cells assessed as necrotic cells at 20 uM measured after 48 hrs by Annexin V-FITC/propidium iodide staining based flow cytometry (reference value: 0.52%); format: functional
[29] = test system: HepG2; test: Induction of apoptosis in human HepG2 cells measured after 48 hrs by TUNEL staining based fluorescence microscopy; format: functional, cell-based
[30] = test system: HepG2; test: Induction of apoptosis in human HepG2 cells transfected with siMcl-1 at 10 uM measured after 48 hrs by Annexin V-FITC/propidium iodide staining based flow cytometry; format: functional, cell-based
[31] = Inhibition of 5-FAM-BH3 peptide binding to human N-terminal GST-tagged BCL-2 (1 to 34 residues)/BCL-XL (29 to 44 residues)/BCL-2 isoform 2 (92 to 207 residues) expressed in Escherichia coli BL21 (DE3) by fluorescence polarization assay
[32] = test system: HepG2; test: Induction of apoptosis in human HepG2 cells at 10 to 20 uM measured after 48 hrs by TUNEL staining based fluorescence microscopy; format: functional, cell-based; settings: dose 10-20 µM

| SMILES | Ki [1] [µM] | inhibition [2] [%] | IC50 [4] [µM] | IC50 [5] [µM] | IC50 [6] [µM] | IC50 [7] [µM] | IC50 [8] [µM] | IC50 [9] [µM] | IC50 [10] [µM] | viability at 10 µM [13] [%] | Activity [14] [%] | Activity [15] [%] | Activity [16] [%] | viability at 20 µM [17] [%] | Activity [18] [%] | Activity [19] [%] | Activity [20] [%] | viability at 10 µM [21] [%] | Activity [22] [%] | Activity [23] [%] | other results |
| --- | --- | --- | --- | --- | --- | --- | --- | --- | --- | --- | --- | --- | --- | --- | --- | --- | --- | --- | --- | --- | --- |
| Cc1ccc(CC(=O)N[C@@H](Cc2cc(Br)c(OCCOc3cccc4ccccc34)c(Br)c2)C(=O)NS(=O)(=O)c2ccc(NCCCc3ccccc3)c([N+](=O)[O-])c2)cc1 | 0.23 | > 50 | 11.5 | 7.5 | 7.67 | 16.5 | 17.7 | 18.9 | 21.6 | 84.5 | 10.47 | 4.31 | 0.73 | 8.34 | 16.21 | 74.52 | 0.93 | 85.9 | 2.44 | 9.03 | inhibition [3]: > 50%; Activity [11]: Dose-dependent effect; Activity [12]: Dose-dependent effect; Activity [24]: 2.63%; viability at 20 µM [25]: 15.6%; Activity [26]: 2.38%; Activity [27]: 80.03%; Activity [28]: 2.04%; Activity [29]: Dose-dependent effect; Activity [30]: inactive |
| Cc1cc(OCCCOc2ccc(C[C@H](NC(=O)OC(C)(C)C)C(=O)NS(=O)(=O)c3ccc(NCCCc4ccccc4)c([N+](=O)[O-])c3)cc2)cc(C)c1Cl | 0.18 | > 50 | 8.25 | 6.42 | 6.34 | 15.1 | 17.4 | 15.8 | 20.7 | 82.3 | 12.11 | 4.94 | 0.66 | 12.9 | 20.71 | 64.31 | 2.09 | 88.6 | 2.24 | 7.18 | Ki [31]: 1.1 µM; Activity [11]: Dose-dependent effect; Activity [12]: Dose-dependent effect; Activity [24]: 2.02%; viability at 20 µM [25]: 15.4%; Activity [26]: 3.4%; Activity [27]: 78.54%; Activity [28]: 2.64%; Activity [29]: Dose-dependent effect; Activity [30]: inactive |
| Cc1cc(OCCOc2ccc(C[C@H](NC(=O)c3ccccc3)C(=O)NS(=O)(=O)c3ccc(NCCCc4ccccc4)c([N+](=O)[O-])c3)cc2)cc(C)c1Cl | 0.27 | > 50 | 7.46 | 11.7 | 7.61 | 13 | 13.9 | 14.3 | 12.9 | 83 | 10.52 | 5.52 | 1.01 | 11.9 | 17.71 | 68.68 | 1.73 | 82.3 | 0.87 | 11.72 | Ki [31]: 1.7 µM; Activity [11]: Dose-dependent effect; Activity [12]: Dose-dependent effect; Activity [24]: 5.13%; viability at 20 µM [25]: 18.5%; Activity [26]: 2.25%; Activity [27]: 75.13%; Activity [28]: 4.13% |
| Cc1ccc(CC(=O)N[C@@H](Cc2cc(I)c(OCCOc3cccc4ccccc34)c(I)c2)C(=O)NS(=O)(=O)c2ccc(NCCCc3ccccc3)c([N+](=O)[O-])c2)cc1 | 0.21 | > 50 | 8.26 | 12.7 | 7.35 | 17.2 | 18 | 18.2 | 21.5 |  |  |  |  |  |  |  |  |  |  |  | inhibition [3]: > 50% |
| O=C(O)CSc1cc(NS(=O)(=O)c2ccc(Br)cc2)c2ccccc2c1O | 0.21 | > 50 | 11.2 | 11.4 | 5.77 | 9.79 | 3.14 | 8.43 | 6.08 | 72.7 | 15.35 | 11.64 | 0.31 | 23.8 | 40.5 | 34.2 | 1.52 | 76.4 | 2.23 | 20.03 | Ki [31]: 11 µM; Activity [24]: 1.36%; viability at 20 µM [25]: 11%; Activity [26]: 2.44%; Activity [27]: 86.11%; Activity [28]: 0.45%; Activity [32]: Active |
